Test results published in patent US20020142982A1, “Method for regulating angiogenesis” (priority 1999, published 2002).
“And” between values parts separate entries of the source, which are not always exact repeats. Equal values may be shown once.

Columns and labels:
ERK-2 = ERK-2 immune complex kinase assay in HUVEC; assay type: cell-based, human; details: SPP 10-500 nM, 10 minutes, starved HUVEC
Experimental: As a second functional assay, ERK-2 kinase activity was measured in response to SPP treatment. For these experiments, endothelial cells were starved for 19 hours, and then stimulated with SPP for 10 minutes. Cells were then lysed, and ERK-2 kinase activity was measured by an immune complex kinase assay using myelin basic protein (MBP) as substrate. Some cells were pretreated with pertussis toxin (PTx) at 200 ng/mL, or PD98059 at 10 μM for 2 hours prior to stimulation.

HUVEC [1] = test: Adherens junction assembly in HUVEC, immunofluorescence of VE-cadherin and catenins; assay type: cell-based, human; details: 500 nM, 1 hour
Experimental: To investigate whether SPP regulates the formation of adherens junction in endothelial cells, HUVEC were plated at a density of 2×10^4 cells/em^2 for 2 days, starved in lipid-depleted medium and treated without (cont) or with SPP (500 nM for 1 hours). For these experiments, after treatment cells were washed with ice-cold PBS, fixed with 4% formaldehyde at room temperature or methanol at −20° C. for 15 minutes. In the case of formaldehyde fixation, cells were permeabilized with 0.2% TX-100. After washing with PBS, cells were stained with antibodies as follows: VE-cadherin ([…], Transduction Labs, San Diego, Calif.; 1 μg/mL, Santa Cruz Biotechnology, Inc., Santa Cruz, Calif.), α-catenin ([…], Transduction Labs), β-catenin (1.25 μg/mL, Transduction Labs; 0.4 μg/mL, Santa Cruz), γ-catenin ([…], Transduction Labs). The primary antibody staining was visualized with FITC-conjugated goat anti-rabbit or TRITC conjugated sheep anti-mouse (1:1000, Cappel, now owned by ICN, Costa Mesa, Calif.) for 30 minutes at room temperature, and imaged on a Zeiss Axiovert 100TV fluorescence microscope. […]

EDG-1 = EDG-1 (Homo sapiens, UniProt P21453); details: 32P-SPP, HEK293EDG-1 cells; read-out: dissociation constant, Kd, of SPP binding to EDG-1; cited from earlier work
HUVEC [2] = test: HUVEC morphogenesis on MATRIGEL (in vitro angiogenesis, tubular length); assay type: cell-based, human; details: 12-18 hours; SPM and C1P 1 μM
Experimental: FIG. 42 is microscope images showing morphogenesis of HUVEC cells plated on Matrigel. HUVEC cells were transduced with 50 MOI of indicated viruses; a,b=none, c=β-gal, d=wild-type EDG-1, e=T236AEDG-1, f=T236AEDG-1+wild-type Akt. Total viral load in c-f is normalized. In vitro angiogenesis assay on Matrigel was conducted in the presence (b to f) or not (a) of 100 nM S1P. The numbers are mean±s.e.m of total tubular length per microscopic field (n=2). Scale bar=170 μm.
To investigate SPP induction of angiogenesis, 200 μL aliquots of thawed MATRIGEL were polymerized in 24-well tissue culture plates. HUVEC were trypsinized, resuspended in plain M199 medium containing soybean trypsin inhibitor (10 mg/mL, Sigma Chemical Co., St. Louis, Mo.). Following centrifugation (250 g; 5 minutes), cells were resuspended in plain M199 supplemented with 2% CFBS at a density of 1.5×10^5 cells/mL. 200 μL of cell suspension were seeded on these gels in the presence or absence of SPP (Biomol), for 12-18 hours. Cells were rinsed two times with phosphate buffered saline (PBS), and then fixed with 4% formaldehyde. Results were recorded photographically using a Zeiss Axiovert 100TV microscope equipped with a 5× objective. Five random fields of each well were photographed, and total tubular length was quantified by image analysis (Kinsella, J. et al., Experimental Cell Research 199: 56-62 (1992); Gamble J., et al., J. Cell Biol. 121: 931-943 (1993)).
Scale bar represents 52 microns. These quantitative data are the mean±standard deviation of duplicate determinations from a representative experiment which was repeated at least three times. SPP concentrations (in μM) are indicated in parentheses. For SPP +PTx, HUVEC were pretreated with PTx (200 ng/mL) for 2 hours, trypsinized, plated onto MATRIGEL, then stimulated with 500 nM SPP in the presence of PTx (20 ng/mL) for 16-18 hours. For SPP+C3, HUVEC were pretreated with C3 exoenzyme (10 μg/mL) for 48 hours, trypsinized, plated onto MATRIGEL, stimulated with 500 nM SPP together with the same concentration of C3 exotoxin. SPM, sphingomyelin (1 μM). For C1P, C8-ceramide-1-phosphate (1 μM). The maximal effects achieved by 1 μM SPP was indistinguishable from the positive control medium which contained FBS.
In these experiments, HUVEC were plated onto MATRIGEL in the presence of the same amount of corresponding antibodies without or with 500 nM SPP. 16 hours later, total length of HUVEC networks formed on MATRIGEL was quantified.

[3] = tested on: MATRIGEL plugs implanted into athymic mice; test: MATRIGEL implant model of subcutaneous angiogenesis in athymic mice; assay type: in vivo
Experimental: To disclose if SPP regulates angiogenesis in vivo, A MATRIGEL implant model of subcutaneous angiogenesis in […] mice was used. In these experiments, female […] mice (4-6 weeks old) were injected subcutaneously with 0.4 mL MATRIGEL (approximate protein concentration 9.9 mg/mL, Collaborative Research) premixed with vehicle (fatty acid-free BSA, 115 μg/mL, Sigma), or FGF-2 (1.3 μg/mL) in the absence or presence of various concentrations of SPP. Seven days later, MATRIGEL plugs were harvested along with underlying skin and the gross angiogenic response was recorded under a Zeiss Stemi SV6 dissecting microscope. For quantification, MATRIGEL plugs were fixed with 4% paraformaldehyde in PBS, dehydrated in ethanol and xylene, embedded in paraffin, and sections subjected to hematoxylin and eosin staining. Angiogenesis was quantified by direct counting of vessels containing red blood cells residing in the stroma interface and the MATRIGEL implant. Each treatment involved 4 mice. 2 random sections from each were quantified and represented as mean±standard deviation. […]
In these experiments, MATRIGEL plugs were fixed, dehydrated, embedded, and sections were subjected to hematoxylin and eosin staining. Angiogenesis was quantified by direct counting of vascular structures as described. Vascular density for each treatment was quantified and represented as mean±standard deviation (n=4). […]

Chain of EDG-1 (P21453 whole entry): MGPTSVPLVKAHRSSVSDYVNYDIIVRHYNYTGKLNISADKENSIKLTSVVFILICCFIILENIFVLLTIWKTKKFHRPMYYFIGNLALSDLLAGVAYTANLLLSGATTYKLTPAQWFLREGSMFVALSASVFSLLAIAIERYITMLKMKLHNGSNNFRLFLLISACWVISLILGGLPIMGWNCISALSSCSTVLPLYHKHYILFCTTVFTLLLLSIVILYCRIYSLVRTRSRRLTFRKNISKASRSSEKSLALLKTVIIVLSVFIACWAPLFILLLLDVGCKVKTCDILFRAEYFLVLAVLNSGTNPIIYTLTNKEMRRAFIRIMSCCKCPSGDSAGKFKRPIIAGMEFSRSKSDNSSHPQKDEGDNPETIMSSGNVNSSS

CCCCCCCCCCCCC/C=C/[C@@H](O)[C@@H](N)COP(=O)(O)O [SPP, sphingosine-1-phosphate]
ERK activity (ERK-2): activated ERK activity in a dose-dependent manner | VE-cadherin, α-, β- and γ-catenin localization at cell-cell junctions (HUVEC [1]): dramatically increased | Kd (EDG-1): 8.1 nM and 8 nM | HUVEC morphogenesis on MATRIGEL (tubular length) (HUVEC [2]): promoted HUVEC morphogenesis in a dose-dependent manner | angiogenesis with SPP alone ([3]; MATRIGEL plug without FGF-2): did not induce significant angiogenesis | FGF-2 induced angiogenesis (vascular density) ([3]; SPP + FGF-2 1.3 μg/mL in MATRIGEL plug, seven days): dramatically enhanced
